Assay results: article PMC8770581 (ChemMedChem, 2021)

Experiments:
[1] = Absorption/emission maxima and fluorescence quantum yield of free ligand in PBS; assay type: physicochemical; conditions: free ligand in PBS
α-syn fibrils = α-syn fibrils (Homo sapiens, UniProt P37840); experiment: α-Synuclein fibril/ligand saturation binding assay
[2] = Kd α-syn, Table 1, synthetic α-syn fibrils 2.5 μM, 1 hour, mean ± SD (n = 3)
[3] = Kd α-syn (reported as no binding), α-syn fibrils, saturation binding

For `CN(C)c1ccc(/C=C/C=C2C(=O)c3ccccc3C2=O)cc1` [compound 19, (E)-2-(3-(4-(Dimethylamino)phenyl)allylidene)-1H-indene-1,3(2H)-dione], the Absmax [1] was 416.

Compound `O=C1/C(=C/C=C/c2ccc(-c3ccc(CO)cc3)cc2)Cc2ccc(O)cc21` [compound 31, (E)-6-Hydroxy-2-((E)-3-(4'-(hydroxymethyl)-[1,1'-biphenyl]-4-yl)allylidene)-2,3-dihydro-1H-inden-1-one] has a Kd (α-syn fibrils; [2]) of 126 ± 5 nM, an Absmax [1] of 368 and an Emmax [1] of 540.

With `O=C1/C(=C/C=C/c2ccc(Br)cc2)Cc2ccc(O)cc21` [compound 11, (E)-2-((E)-3-(4-Bromophenyl)allylidene)-6-hydroxy-2,3-dihydro-1H-inden-1-one] the Kd (α-syn fibrils; [3]) was at least 2000 nM, the Kd (α-syn fibrils; [2]) was over 2000 nM and the Absmax [1] was 335. The Emmax [1] was 429.

In the case of `N#Cc1ccc(-c2ccc(/C=C/C=C3\Cc4ccc(O)cc4C3=O)cc2)s1` [compound 33, 5-(4-((E)-3-((E)-6-Hydroxy-1-oxo-1,3-dihydro-2H-inden-2-ylidene)prop-1-en-1-yl)phenyl)thiophene-2-carbonitrile], the Absmax [1] is reported as 398 and the Emmax [1] is reported as 565.

Work on `O=C1/C(=C/C=C/c2ccc([N+](=O)[O-])cc2)Cc2cc(F)cc(F)c21` [compound 15, (E)-5,7-Difluoro-2-((E)-3-(4-nitrophenyl)allylidene)-2,3-dihydro-1H-inden-1-one] yielded a Kd (α-syn fibrils; [2]) of 398.1 ± 3.9 nM, an Absmax [1] of 330 and an Emmax [1] of 439.

With `O=C1C(=CC2=C(Cl)c3ccccc3CC2)C(=O)c2ccccc21` [compound 52, 2-((1-Chloro-3,4-dihydronaphthalen-2-yl)methylene)-1H-indene-1,3(2H)-dione] the Kd (α-syn fibrils; [2]) was over 2000 nM, the Absmax [1] was 354 and the Emmax [1] was 406.

For `CN(C)c1ncc(-c2ccc(/C=C3/Cc4ccccc4C3=O)s2)cn1` [compound 41, (Z)-2-((5-(2-(Dimethylamino)pyrimidin-5-yl)thiophen-2-yl)methylene)-2,3-dihydro-1H-inden-1-one], the Kd (α-syn fibrils; [2]) was 272 ± 29.9 nM, the Absmax [1] was 410 and the Emmax [1] was 567.

`O=C(O)c1ccc(-c2ccc(/C=C/C=C3C(=O)c4ccccc4C3=O)cc2)cc1` [compound 34, (E)-4'-(3-(1,3-Dioxo-1,3-dihydro-2H-inden-2-ylidene)prop-1-en-1-yl)-[1,1'-biphenyl]-4-carboxylic acid] showed a Kd (α-syn fibrils; [2]) of 1430 ± 46.8 nM, an Absmax [1] of 358 and an Emmax [1] of 409.

In the case of `O=C1/C(=C/C=C/c2ccc(Br)cc2)Cc2ccccc21` [compound 7, (E)-2-((E)-3-(4-Bromophenyl)allylidene)-2,3-dihydro-1H-inden-1-one], the Kd (α-syn fibrils; [3]) is reported as at least 2000 nM, the Kd (α-syn fibrils; [2]) is reported as over 2000 nM and the Absmax [1] is reported as 332. It also gave an Emmax [1] of 430.

For `COc1cc(C=CC=C2C(=O)Oc3ccccc3C2=O)ccc1O` [compound 25, 3-(3-(4-Hydroxy-3-methoxyphenyl)allylidene)chromane-2,4-dione], the Kd (α-syn fibrils; [2]) was 116.3 ± 0.7 nM, the Absmax [1] was 490 and the Emmax [1] was 621.

With `O=C1/C(=C/C=C/c2ccc([N+](=O)[O-])cc2)Cc2ccccc21` [compound 10, (E)-2-((E)-3-(4-Nitrophenyl)allylidene)-2,3-dihydro-1H-inden-1-one] the Absmax [1] was 336 and the Emmax [1] was 438.

Work on `COc1cc(/C=C/C=C2\Cc3cc(F)cc(F)c3C2=O)ccc1O` [compound 14, (E)-5,7-Difluoro-2-((E)-3-(4-hydroxy-3-methoxyphenyl)allylidene)-2,3-dihydro-1H-inden-1-one] yielded a Kd (α-syn fibrils; [2]) of 241 ± 47.9 nM, an Absmax [1] of 338 and an Emmax [1] of 545.

Compound `O=C1/C(=C\c2ccc(-c3ccc(CO)cc3)s2)Cc2ccc(O)cc21` [compound 44, (Z)-6-Hydroxy-2-((5-(4-(hydroxymethyl)phenyl)thiophen-2-yl)methylene)-2,3-dihydro-1H-inden-1-one] has a Kd (α-syn fibrils; [2]) of 134 ± 19.2 nM, an Absmax [1] of 412 and an Emmax [1] of 545.

“3-(3-(4-(Dimethylamino)phenyl)allylidene)chromane-2,4-dione [compound 27]” gave an Absmax [1] of 442 and an Emmax [1] of 661.

Work on `Nc1cccc(-c2ccc(/C=C3/Cc4ccccc4C3=O)s2)c1` [compound 38, (Z)-2-((5-(3-Aminophenyl)thiophen-2-yl)methylene)-2,3-dihydro-1H-inden-1-one] yielded a Kd (α-syn fibrils; [2]) of 160 ± 10 nM, an Absmax [1] of 408 and an Emmax [1] of 563.

With `O=C1/C(=C\c2cc(-c3cccnc3)cs2)Cc2ccccc21` [compound 47, (Z)-2-((4-(Pyridin-3-yl)thiophen-2-yl)methylene)-2,3-dihydro-1H-inden-1-one] the Kd (α-syn fibrils; [2]) was 333 ± 28.3 nM, the Absmax [1] was 340 and the Emmax [1] was 404.

Work on `O=C1C(=C/C=C/c2ccc(F)cc2)C(=O)c2ccccc21` [compound 18, (E)-2-(3-(4-Fluorophenyl)allylidene)-1H-indene-1,3(2H)-dione] yielded a Kd (α-syn fibrils; [2]) of over 2000 nM, an Absmax [1] of 332 and an Emmax [1] of 421.

In the case of `CN(C)c1ccc(C=CC=C2C(=O)Oc3ccccc3C2=O)cc1` [compound 26, 3-(3-(4-(Dimethylamino)phenyl)allylidene)chromane-2,4-dione], the Kd (α-syn fibrils; [2]) is reported as 119 ± 21.1 nM, the Absmax [1] is reported as 440 and the Emmax [1] is reported as 657.

For `CN(C)c1ncc(-c2ccc(/C=C3/CCc4ccccc4C3=O)s2)cn1` [compound 51, (Z)-2-((5-(2-(Dimethylamino)pyrimidin-5-yl)thiophen-2-yl)methylene)-3,4-dihydronaphthalen-1(2H)-one], the Kd (α-syn fibrils; [2]) was 107 ± 7.5 nM, the Absmax [1] was 442 and the Emmax [1] was 613.

`O=C1/C(=C\c2ccc(-c3ccc(CO)cc3)s2)CCc2ccccc21` [compound 49, (Z)-2-((5-(4-(Hydroxymethyl)phenyl)thiophen-2-yl)methylene)-3,4-dihydronaphthalen-1(2H)-one] gave a Kd (α-syn fibrils; [2]) of 162 ± 13.6 nM, an Absmax [1] of 372 and an Emmax [1] of 551.

`O=C1/C(=C/C=C/c2ccc([N+](=O)[O-])cc2)Cc2ccc(O)cc21` [compound 13, (E)-6-Hydroxy-2-((E)-3-(4-nitrophenyl)allylidene)-2,3-dihydro-1H-inden-1-one] gave a Kd (α-syn fibrils; [2]) of 726 ± 23.6 nM, an Absmax [1] of 356 and an Emmax [1] of 443.

With `O=C1C(=Cc2cc3ccccc3[nH]2)C(=O)c2ccccc21` [compound 55, 2-((1H-Indol-2-yl)methylene)-1H-indene-1,3(2H)-dione] the Kd (α-syn fibrils; [2]) was 1180 ± 88 nM, the Absmax [1] was 384 and the Emmax [1] was 519.

For `O=C1C(=C/C=C/c2ccc([N+](=O)[O-])cc2)C(=O)c2ccccc21` [compound 22, (E)-2-(3-(4-Nitrophenyl)allylidene)-1H-indene-1,3(2H)-dione], the Kd (α-syn fibrils; [2]) was 1330 ± 182 nM, the Absmax [1] was 336 and the Emmax [1] was 460.

For `CN(C)c1ccc(/C=C/C=C2\Cc3ccc(O)cc3C2=O)cc1` [compound 12, (E)-2-((E)-3-(4-(Dimethylamino)phenyl)allylidene)-6-hydroxy-2,3-dihydro-1H-inden-1-one], the Kd (α-syn fibrils; [2]) was 203 ± 15.9 nM, the Absmax [1] was 406 and the Emmax [1] was 614.

In the case of `O=C1C(=Cc2cc(-c3ccc(Br)cc3)no2)C(=O)c2ccccc21` [compound 56, 2-((3-(4-Bromophenyl)isoxazol-5-yl)methylene)-1H-indene-1,3(2H)-dione], the Kd (α-syn fibrils; [3]) is reported as at least 2000 nM, the Kd (α-syn fibrils; [2]) is reported as over 2000 nM and the Absmax [1] is reported as 321. It also gave an Emmax [1] of 409.

Compound `CN(C)c1ccc(-c2ccc(/C=C/C=C3\Cc4ccc(O)cc4C3=O)cc2)cc1` [compound 30, (E)-2-((E)-3-(4'-(Dimethylamino)-[1,1'-biphenyl]-4-yl)allylidene)-6-hydroxy-2,3-dihydro-1H-inden-1-one] has an Absmax [1] of 414 and an Emmax [1] of 597.

`O=C1C(=Cc2coc3ccc(Br)cc3c2=O)C(=O)c2ccccc21` [compound 54, 2-((6-Bromo-4-oxo-4H-chromen-3-yl)methylene)-1H-indene-1,3(2H)-dione] showed a Kd (α-syn fibrils; [2]) of over 2000 nM, an Absmax [1] of 336 and an Emmax [1] of 406.

For `CN(C)c1ccc(C=CC=C2C(=O)Oc3ccc(Br)cc3C2=O)cc1` [compound 28, 6-Bromo-3-(3-(4-(dimethylamino)phenyl)allylidene)chromane-2,4-dione], the Kd (α-syn fibrils; [3]) was at least 2000 nM, the Kd (α-syn fibrils; [2]) was over 2000 nM and the Absmax [1] was 405.

`COc1cc(-c2ccc(/C=C3/CCc4ccccc4C3=O)s2)ccc1O` [compound 50, (Z)-2-((5-(4-Hydroxy-3-methoxyphenyl)thiophen-2-yl)methylene)-3,4-dihydronaphthalen-1(2H)-one] showed a Kd (α-syn fibrils; [2]) of 111 ± 7.8 nM, an Absmax [1] of 417 and an Emmax [1] of 596.

Compound `O=C1C(=C/C=C/c2ccc(Br)cc2)C(=O)c2ccccc21` [compound 17, (E)-2-(3-(4-Bromophenyl)allylidene)-1H-indene-1,3(2H)-dione] has a Kd (α-syn fibrils; [2]) of over 2000 nM, an Absmax [1] of 328 and an Emmax [1] of 419.

For `O=C1/C(=C\c2cc(-c3ccc(CO)cc3)cs2)Cc2ccccc21` [compound 46, (Z)-2-((4-(4-(Hydroxymethyl)phenyl)thiophen-2-yl)methylene)-2,3-dihydro-1H-inden-1-one], the Kd (α-syn fibrils; [2]) was 153 ± 7.9 nM, the Absmax [1] was 368 and the Emmax [1] was 454.

`COc1cc(/C=C/C=C2C(=O)c3ccccc3C2=O)cc(OC)c1O` [compound 21, (E)-2-(3-(4-Hydroxy-3,5-dimethoxyphenyl)allylidene)-1H-indene-1,3(2H)-dione] showed a Kd (α-syn fibrils; [2]) of 268 ± 11.7 nM, an Absmax [1] of 434 and an Emmax [1] of 450.

In the case of `Cc1ccc2occ(/C=C3/Cc4ccc(O)cc4C3=O)c(=O)c2c1` [compound 57, (Z)-3-((6-Hydroxy-1-oxo-1,3-dihydro-2H-inden-2-ylidene)methyl)-6-methyl-4H-chromen-4-one], the Kd (α-syn fibrils; [2]) is reported as 656 ± 88 nM, the Absmax [1] is reported as 326 and the Emmax [1] is reported as 388.

With `O=C1C(=C/C=C/c2ccccc2)C(=O)c2ccccc21` [compound 16, (E)-2-(3-Phenylallylidene)-1H-indene-1,3(2H)-dione] the Kd (α-syn fibrils; [2]) was over 2000 nM, the Absmax [1] was 331 and the Emmax [1] was 421.

Work on `Cc1ccc2occ(C=C3C(=O)c4ccccc4C3=O)c(=O)c2c1` [compound 53, 2-((6-Methyl-4-oxo-4H-chromen-3-yl)methylene)-1H-indene-1,3(2H)-dione] yielded a Kd (α-syn fibrils; [2]) of over 2000 nM, an Absmax [1] of 428 and an Emmax [1] of 471.
